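These data come from cells grown in 96-well plates and exposed to compound for 48 hours at five concentrations. At the TGI there is no net growth.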
Experiments:
Assay in all cases: inhibition of tumour cell growth, NCI panel, 48 h
[1] = test system: DU-145 prostate
[2] = test system: LOX IMVI melanoma
[3] = test system: EKVX NSCLC
[4] = test system: SF-295 CNS
[5] = test system: HT29 colon
[6] = test system: PC-3 prostate
[7] = test system: BT-549 breast
[8] = test system: MCF7 breast
[9] = test system: NCI-H460 lung
[10] = test system: NCI-H226 lung
[11] = test system: SF-268 CNS
[12] = test system: SNB-75 CNS
[13] = test system: SK-MEL-28 melanoma
[14] = test system: UO-31 renal
[15] = test system: M14 melanoma
[16] = test system: TK-10 renal
[17] = test system: SK-MEL-5 melanoma
[18] = test system: RXF 393 renal
[19] = test system: OVCAR-4 ovarian
[20] = test system: UACC-257 melanoma
[21] = test system: IGROV1 ovarian
[22] = test system: SNB-19 CNS
[23] = test system: HL-60(TB) leukemia
[24] = test system: A549 NSCLC
[25] = test system: CAKI-1 renal
[26] = test system: K-562 leukemia
[27] = test system: OVCAR-3 ovarian
[28] = test system: MALME-3M melanoma
[29] = test system: COLO 205 colon
[30] = test system: 786-0 renal
[31] = test system: A498 renal
[32] = test system: MOLT-4 leukemia
[33] = test system: HOP-92 NSCLC
[34] = test system: SK-MEL-2 melanoma
[35] = test system: ACHN renal
[36] = test system: SK-OV-3 ovarian
[37] = test system: HOP-62 NSCLC
[38] = test system: U251 CNS
[39] = test system: HCT-116 colon
[40] = test system: SR leukemia
[41] = test system: NCI-H522 lung
[42] = test system: OVCAR-8 ovarian
[43] = test system: MDA-N
[44] = test system: HCC-2998 colon
[45] = test system: HS 578T breast
[46] = test system: SF-539 CNS
[47] = test system: NCI/ADR-RES ovarian
[48] = test system: OVCAR-5 ovarian
[49] = test system: T-47D breast
[50] = test system: SN12C renal
[51] = test system: NCI-H23 lung
[52] = test system: HCT-15 colon
[53] = test system: RPMI-8226 leukemia
[54] = test system: KM12 colon
[55] = test system: MDA-MB-435
[56] = test system: UACC-62 melanoma
[57] = test system: SW-620 colon
[58] = test system: CCRF-CEM leukemia
[59] = test system: MDA-MB-231 breast

## COC(=O)c1c(C)nc2c1cc(O)c1[nH]c(C)c(C)nc12
[1]
  TGI: > 100 µM
[2]
  TGI: > 100 µM
[3]
  TGI: > 100 µM
[4]
  TGI: > 100 µM
[5]
  TGI: > 100 µM
[6]
  TGI: > 100 µM
[7]
  TGI: > 100 µM
[8]
  TGI: > 100 µM
[9]
  TGI: > 100 µM
[10]
  TGI: > 100 µM
[11]
  TGI: > 100 µM
[12]
  TGI: 71.8 µM
[13]
  TGI: > 100 µM
[14]
  TGI: > 100 µM
[15]
  TGI: > 100 µM
[16]
  TGI: > 100 µM
[17]
  TGI: > 100 µM
[18]
  TGI: > 100 µM
[19]
  TGI: > 100 µM
[20]
  TGI: > 100 µM
[21]
  TGI: > 100 µM
[22]
  TGI: > 100 µM
[23]
  TGI: > 100 µM
[24]
  TGI: > 100 µM
[25]
  TGI: > 100 µM
[26]
  TGI: > 100 µM
[27]
  TGI: > 100 µM
[28]
  TGI: > 100 µM
[29]
  TGI: > 100 µM
[30]
  TGI: > 100 µM
[31]
  TGI: > 100 µM
[32]
  TGI: > 100 µM
[33]
  TGI: > 100 µM
[34]
  TGI: > 100 µM
[35]
  TGI: > 100 µM
[36]
  TGI: > 100 µM
[37]
  TGI: 71.7 µM
[38]
  TGI: > 100 µM
[39]
  TGI: > 100 µM
[40]
  TGI: > 100 µM
[41]
  TGI: > 100 µM
[42]
  TGI: > 100 µM
[43]
  TGI: > 100 µM
[44]
  TGI: > 100 µM
[45]
  TGI: > 100 µM
[46]
  TGI: > 100 µM
[47]
  TGI: > 100 µM
[48]
  TGI: > 100 µM
[49]
  TGI: > 100 µM
[50]
  TGI: > 100 µM
[51]
  TGI: > 100 µM
[52]
  TGI: > 100 µM
[53]
  TGI: > 100 µM
[54]
  TGI: > 100 µM
[55]
  TGI: > 100 µM
[56]
  TGI: > 100 µM
[57]
  TGI: > 100 µM
[58]
  TGI: > 100 µM

## [N-]=[N+]=NC(c1ccccc1)(c1ccccc1)c1ccccc1
[1]
  TGI: 36.1 µM
[2]
  TGI: 45.3 µM
[3]
  TGI: 27.8 µM
[4]
  TGI: 27.1 µM
[5]
  TGI: 32.6 µM
[6]
  TGI: 29.4 µM
[7]
  TGI: 37.7 µM
[8]
  TGI: 35.7 µM
[9]
  TGI: 33 µM
[10]
  TGI: 33.2 µM
[11]
  TGI: 35.7 µM
[12]
  TGI: 34.4 µM
[59]
  TGI: 31.2 µM
[13]
  TGI: 37.8 µM
[14]
  TGI: 30 µM
[15]
  TGI: 35.5 µM
[16]
  TGI: 32.4 µM
[17]
  TGI: 26.8 µM
[18]
  TGI: 32.9 µM
[19]
  TGI: 57.9 µM
[20]
  TGI: 31.4 µM
[21]
  TGI: 63.7 µM
[22]
  TGI: 39.5 µM
[23]
  TGI: 39.4 µM
[24]
  TGI: 34.3 µM
[25]
  TGI: 46.7 µM
[26]
  TGI: 42.5 µM
[27]
  TGI: 42.5 µM
[28]
  TGI: 29.5 µM
[29]
  TGI: 27.8 µM
[30]
  TGI: 31.5 µM
[31]
  TGI: 31.9 µM
[32]
  TGI: 44.8 µM
[33]
  TGI: 32.3 µM
[34]
  TGI: 29.3 µM
[35]
  TGI: 29.1 µM
[36]
  TGI: > 100 µM
[37]
  TGI: 42.2 µM
[38]
  TGI: 29.2 µM
[39]
  TGI: 30.2 µM
[41]
  TGI: 33.5 µM
[42]
  TGI: 35.1 µM
[43]
  TGI: 31.4 µM
[44]
  TGI: 30.5 µM
[45]
  TGI: 51.8 µM
[46]
  TGI: 31 µM
[47]
  TGI: 34.1 µM
[48]
  TGI: 30.1 µM
[49]
  TGI: 38.4 µM
[50]
  TGI: 30.9 µM
[51]
  TGI: 42.4 µM
[52]
  TGI: 40.5 µM
[53]
  TGI: 62.6 µM
[54]
  TGI: 46.8 µM
[55]
  TGI: 44 µM
[56]
  TGI: 31.4 µM
[57]
  TGI: 40.5 µM
[58]
  TGI: 55.4 µM
